Measurements from patent US20120172438A1, “GLYCYRRHETINIC ACID ESTER DERIVATIVE SYNTHESIS METHOD AND DEOXOGLYCYRRHETINIC ACID ESTER COMPOUND” (priority 2009, published 2012).
Marks after values point to notes of the source that are not given here.

Legend:
[1] = tested on: acetaminophen induced liver injury; assay: Acetaminophen induced liver injury in mice; format: in vivo; conditions: for ALT / AST: 10 days
Method: Ethyl 11-deoxy-18α-glycyrrhetinate: provided by traditional Chinese medicine laboratory, R&D center of Jiangsu Chia Tai Tianqing Pharmaceutical Co., Ltd. Bifendate pills: produced by Beijing Union Pharmaceutical factory. Daily dosage of human is 45 mg, used as the positive control medicine. Acetaminophen: produced by Jinzhou biochemical pharmaceutical factory. All medicines were prepared to desired concentrations with physiological saline according to the requirement of experiment. AST, ALT Kit: product of Nanjing Jiancheng bioengineering research institute.
60 mice were randomly divided into 6 groups: the normal control group, Bifendate group (positive medicine group), model control group, various doses of ethyl 11-deoxy-18α-glycyrrhetinate groups (240, 120, 60 mg/kg). After the animals were adaptively fed for 3 days, animals in each group were administered the medicines by gastric infusion for 10 days (one time/day). Animals in the normal control group and model group were administered 0.2 ml/mouse of physiological saline. 6 hours after the last administration, animals in each group, except the animals in normal control group, were intraperitoneally injected 400 mg kg-1 acetaminophen. After 12 hours, blood was taken by orbital bleeding. Activities of alanine aminotransferase (ALT), aspartate aminotransferase (AST) were measured. And T test of groups was performed, see table 7;

[2] = tested on: TAA induced acute liver injury; assay: TAA induced acute liver injury mouse model; format: in vivo, ICR male mice; design: Average grade of hepatocyte necrosis: scale not given here; conditions: for Grade of hepatocyte necrosis 0 (number of mice) / Grade of hepatocyte necrosis 1 (number of mice) / Grade of hepatocyte necrosis 2 (number of mice) / Grade of hepatocyte necrosis 3 (number of mice) / Grade of hepatocyte necrosis 4 (number of mice): N=10
Method: 50 ICR male mice were randomly divided into 5 groups of 10 mice in each group: the model group, diammonium glycyrrhizinate group (240 mg/kg), high dose of ethyl 11-deoxy-18α-glycyrrhetinate group (240 mg/kg), middle dose of ethyl 11-deoxy-18α-glycyrrhetinate group (120 mg/kg), and low dose of ethyl 11-deoxy-18α-glycyrrhetinate group (60 mg/kg). The mice in model group were administered equal amount of 0.5% CMC-Na by IG.

[3] = tested on: D-Galn induced acute liver injury; assay: D-Galn induced acute liver injury mouse model; format: in vivo, ICR male mice
Method: 1. Comparison of therapeutic effects of ethyl 11-deoxy-18α-glycyrrhetinate and compound glycyrrhizin injection on ICR male mouse models of the D-Galn induced acute liver injury
Methods: 60 ICR male mice were randomly divided into 6 groups of 10 mice in each group: the model group, compound glycyrrhizin injection group (60 mg/kg), compound glycyrrhizin gastric infusion group (240 mg /kg), high dose of ethyl 11-deoxy-18α-glycyrrhetinate group (240 mg/kg), middle dose of ethyl 11-deoxy-18α-glycyrrhetinate group (120 mg/kg), low dose of ethyl 11-deoxy-18α-glycyrrhetinate group (60 mg/kg). […] The mice in model group were administered equal amount of 0.5% CMC-Na by gastric infusion.

[4] = tested on: BCG + LPS induced liver injury; assay: BCG+LPS induced liver injury in mice; format: in vivo, Kunming mice; conditions: for ALT / AST: 7 days
[5] = tested on: carrageenan-induced rat paw edema; assay: Carrageenan-induced rat paw swelling; format: in vivo, male SD rats
Method: Rat paw edema was induced by injecting carrageenan, and we observed the swelling to evaluate the anti-inflammatory effect. Wherein:
• Animals: male SD rats, 150-180 g; • Inflammatory Agent: carrageenan; • Test Medicine: ethyl 11-deoxy-18α-glycyrrhetinate was dissolved in 1% CMC-Na to get the desired concentration; • Positive Control Medicine: indomethacin was dissolved in 1% CMC-Na to get the desired concentration;
50 rats were randomly divided into 5 groups of 10 rats in each group: the model group, positive control group (administering indomethacin 10 mg/kg), various doses of the test medicine groups (30, 60, 120 mg/kg). The animals in each group were administered continuously for 3 days. Before the last administration, the volumes of the left hind feet of the rats were measured by micropipette method. Then the animals were administered the test medicines or CMC-Na by gastric infusion. 1 hour later, freshly prepared carrageenan was injected subcutaneously into left hind feet of the rats according to the dosage of 0.05 ml/paw by using a 0.25 ml syringe and NO. 4 needle. The volume of left hind feet of the rats was measured by the method mentioned above at time points of 1, 3, 4, 5 and 7 hours after administration, each point 2 times, and the average values were calculated. The difference of these values between before and after inflammation was called swelling degree.
Data was presented as x±s. T test of the average of two samples was used to compare the experimental data of each group. P<0.05 or P<0.01 was regarded to be statistically significant.

[6] = Table 1 experiment, 60 mg/kg IG, daily for 6 days
[7] = Table 1 experiment, 120 mg/kg IG, daily for 6 days
[8] = Table 1 experiment, 240 mg/kg IG, daily for 6 days
[9] = Table 2 experiment, 60 mg/kg IG, 7 days
[10] = Table 2 experiment, 120 mg/kg IG, 7 days
[11] = Table 2 experiment, 240 mg/kg IG, 7 days

In the case of `CCOC(=O)C1(C)CCC2(C)CCC3(C)C(=CCC4C5(C)CCC(O)C(C)(C)C5CCC43C)C2C1` (stereo not drawn) [Ethyl 11-deoxy-18α-glycyrrhetinate, ethyl 11-deoxy-18α-glycyrrhetinate], the ALT ([1]; 60 mg/kg gastric infusion) is reported as 172.0 ± 39.8 U/L, the AST ([1]; 60 mg/kg gastric infusion) is reported as 203.5 ± 55.4 U/L and the ALT ([1]; 120 mg/kg gastric infusion) is reported as 133.3 ± 28.7 U/L. It also gave an AST ([1]; 120 mg/kg gastric infusion) of 158.1 ± 46.9 U/L, an ALT ([1]; 240 mg/kg gastric infusion) of 119.4 ± 15.2 U/L and an AST ([1]; 240 mg/kg gastric infusion) of 122.3 ± 28.0 U/L. For the same compound, the “Reduction of AST, ALT and protection against hepatocyte injury (in words)” value ([1]; mouse, in vivo) was “can reduce AST, ALT, and effectively protect against the acetaminophen induced hepatocyte injury”, the ALT ([2]; 60 mg/kg IG) was 1177 ± 701 U/ml and the “ALT Inhibition %” value ([2]; 60 mg/kg IG) was 48%. For the same compound, the AST ([2]; 60 mg/kg IG) was 940 ± 582 U/ml, the “AST Inhibition %” value ([2]; 60 mg/kg IG) was 45% and the “Average grade of hepatocyte necrosis” value ([2]; 60 mg/kg IG) was 1.4*. The “Grade of hepatocyte necrosis 0 (number of mice)” value ([2]; 60 mg/kg IG) was 1, the “Grade of hepatocyte necrosis 1 (number of mice)” value ([2]; 60 mg/kg IG) was 4 and the “Grade of hepatocyte necrosis 2 (number of mice)” value ([2]; 60 mg/kg IG) was 5. The “Grade of hepatocyte necrosis 3 (number of mice)” value ([2]; 60 mg/kg IG) was 0, the “Grade of hepatocyte necrosis 4 (number of mice)” value ([2]; 60 mg/kg IG) was 0 and the ALT ([2]; 120 mg/kg IG) was 1117 ± 707 U/ml. For the same compound, the “ALT Inhibition %” value ([2]; 120 mg/kg IG) was 51%, the AST ([2]; 120 mg/kg IG) was 823 ± 530 U/ml and the “AST Inhibition %” value ([2]; 120 mg/kg IG) was 52%. The “Average grade of hepatocyte necrosis” value ([2]; 120 mg/kg IG) was 1.3**, the “Grade of hepatocyte necrosis 0 (number of mice)” value ([2]; 120 mg/kg IG) was 1 and the “Grade of hepatocyte necrosis 1 (number of mice)” value ([2]; 120 mg/kg IG) was 5. The “Grade of hepatocyte necrosis 2 (number of mice)” value ([2]; 120 mg/kg IG) was 4, the “Grade of hepatocyte necrosis 3 (number of mice)” value ([2]; 120 mg/kg IG) was 0 and the “Grade of hepatocyte necrosis 4 (number of mice)” value ([2]; 120 mg/kg IG) was 0. The ALT ([2]; 240 mg/kg IG) was 992 ± 558 U/ml, the “ALT Inhibition %” value ([2]; 240 mg/kg IG) was 56% and the AST ([2]; 240 mg/kg IG) was 738 ± 258 U/ml. For the same compound, the “AST Inhibition %” value ([2]; 240 mg/kg IG) was 57%, the “Average grade of hepatocyte necrosis” value ([2]; 240 mg/kg IG) was 1.2** and the “Grade of hepatocyte necrosis 0 (number of mice)” value ([2]; 240 mg/kg IG) was 1. For the same compound, the “Grade of hepatocyte necrosis 1 (number of mice)” value ([2]; 240 mg/kg IG) was 6, the “Grade of hepatocyte necrosis 2 (number of mice)” value ([2]; 240 mg/kg IG) was 3 and the “Grade of hepatocyte necrosis 3 (number of mice)” value ([2]; 240 mg/kg IG) was 0. For the same compound, the “Grade of hepatocyte necrosis 4 (number of mice)” value ([2]; 240 mg/kg IG) was 0, the ALT [3, 6] was 833 ± 564 U/ml and the “ALT Inhibition %” value [3, 6] was 60%. For the same compound, the AST [3, 6] was 777 ± 533 U/ml, the “AST Inhibition %” value [3, 6] was 60% and the ALT [3, 7] was 474 ± 345 U/ml. For the same compound, the “ALT Inhibition %” value [3, 7] was 77%, the AST [3, 7] was 414 ± 340 U/ml and the “AST Inhibition %” value [3, 7] was 79%. The ALT [3, 8] was 311 ± 256 U/ml, the “ALT Inhibition %” value [3, 8] was 85% and the AST [3, 8] was 317 ± 214 U/ml. The “AST Inhibition %” value [3, 8] was 84%, the ALT [3, 9] was 767 ± 739 U/ml and the “ALT Inhibition %” value [3, 9] was 61%. The AST [3, 9] was 353 ± 256 U/ml, the “AST Inhibition %” value [3, 9] was 69% and the ALT [3, 10] was 452 ± 432 U/ml. The “ALT Inhibition %” value [3, 10] was 77%, the AST [3, 10] was 292 ± 215 U/ml and the “AST Inhibition %” value [3, 10] was 74%. For the same compound, the ALT [3, 11] was 372 ± 440 U/ml, the “ALT Inhibition %” value [3, 11] was 81% and the AST [3, 11] was 266 ± 192 U/ml. The “AST Inhibition %” value [3, 11] was 77%, the ALT ([4]; 60 mg/kg gastric infusion) was 105.3 ± 18.61 U/L and the AST ([4]; 60 mg/kg gastric infusion) was 227.2 ± 59.7 U/L. For the same compound, the ALT ([4]; 120 mg/kg gastric infusion) was 108.7 ± 20.0 U/L, the AST ([4]; 120 mg/kg gastric infusion) was 190.1 ± 43.3 U/L and the ALT ([4]; 240 mg/kg gastric infusion) was 89.4 ± 13.2 U/L. For the same compound, the AST ([4]; 240 mg/kg gastric infusion) was 169.3 ± 38.4 U/L, the “Protection of liver and reduction of enzyme activity (in words)” value ([4]; mouse, in vivo) was “has good activity of protecting liver and reducing enzyme activity” and the “Swelling degree of the feet after inflammation” value (“Swelling degree of the feet” below) ([5]; 30 mg/kg gastric infusion, 1 h) was 0.20 ± 0.10 mL. The “Swelling degree of the feet” value ([5]; 30 mg/kg gastric infusion, 3 h) was 0.27 ± 0.10 mL, the “Swelling degree of the feet” value ([5]; 30 mg/kg gastric infusion, 4 h) was 0.33 ± 0.11 mL and the “Swelling degree of the feet” value ([5]; 30 mg/kg gastric infusion, 5 h) was 0.39 ± 0.11 mL. The “Swelling degree of the feet” value ([5]; 30 mg/kg gastric infusion, 7 h) was 0.27 ± 0.12 mL, the “Swelling degree of the feet” value ([5]; 60 mg/kg gastric infusion, 1 h) was 0.17 ± 0.08 mL and the “Swelling degree of the feet” value ([5]; 60 mg/kg gastric infusion, 3 h) was 0.29 ± 0.15 mL. The “Swelling degree of the feet” value ([5]; 60 mg/kg gastric infusion, 4 h) was 0.37 ± 0.11 mL, the “Swelling degree of the feet” value ([5]; 60 mg/kg gastric infusion, 5 h) was 0.37 ± 0.07 mL and the “Swelling degree of the feet” value ([5]; 60 mg/kg gastric infusion, 7 h) was 0.29 ± 0.09 mL. The “Swelling degree of the feet” value ([5]; 120 mg/kg gastric infusion, 1 h) was 0.20 ± 0.05 mL, the “Swelling degree of the feet” value ([5]; 120 mg/kg gastric infusion, 3 h) was 0.32 ± 0.11 mL and the “Swelling degree of the feet” value ([5]; 120 mg/kg gastric infusion, 4 h) was 0.34 ± 0.09 mL. The “Swelling degree of the feet” value ([5]; 120 mg/kg gastric infusion, 5 h) was 0.42 ± 0.12 mL, the “Swelling degree of the feet” value ([5]; 120 mg/kg gastric infusion, 7 h) was 0.28 ± 0.09 mL and the “Inhibition of carrageenan-induced swelling of the rat feet (in words)” value ([5]; 30, 60, 120 mg/kg) was “began to inhibit the swelling of the rat feet induced by carrageenan after 4 hours”.
For `COc1ccc2c(c1)c(CC(=O)O)c(C)n2C(=O)c1ccc(Cl)cc1` [Indomethacin, indomethacin, reference compound], the “Swelling degree of the feet” value ([5]; 10 mg/kg gastric infusion, 1 h) was 0.13 ± 0.05 mL, the “Swelling degree of the feet” value ([5]; 10 mg/kg gastric infusion, 3 h) was 0.17 ± 0.07 mL and the “Swelling degree of the feet” value ([5]; 10 mg/kg gastric infusion, 4 h) was 0.24 ± 0.09 mL. For the same compound, the “Swelling degree of the feet” value ([5]; 10 mg/kg gastric infusion, 5 h) was 0.22 ± 0.06 mL and the “Swelling degree of the feet” value ([5]; 10 mg/kg gastric infusion, 7 h) was 0.16 ± 0.05 mL.
